# Measured values from US8227508B2, “Dietary and pharmaceutical compositions containing carnosol and/or rosmanol and their uses” (DSM IP Assets B.V., priority 2006, dated 2012).
# Key:
# mouse [1] = assay: Marble burying test; format: in vivo; settings: 32 mg/kg i.p., −30 min
# Procedure: The method applied here follows that described by Broekkamp et al. (1986). Mice (n=15 per treatment group) were individually placed in transparent plastic cages (33×21×18 cm) with 5 cm of sawdust on the floor and 25 marbles (diameter 1 cm) grouped in the centre of the cage. A second, up-turned, cage served as a lid. The number of marbles covered by sawdust (by at least two-thirds) was counted at the end of the 30-min test period. Tests were performed by investigators blind to the drug treatment protocol.
# Prior to testing, all test cages and marbles were “impregnated” by leaving 10 naive mice in each cage for 15 minutes.
# Carnosol (3, 10 and 30 mg/kg) and rosmanol (10, 30 and 100 mg/kg) were administered i.p. 30 min before the test, and compared with a vehicle control group. Fluoxetine (32 mg/kg), administered under the same experimental conditions, was used as a reference substance.
# mouse [2] = assay: Four Plates Test; format: in vivo; settings: 32 mg/kg p.o. −1 h (vehicle at −24 h and −5 h)
# Text: The method, which detects anxiolytic activity, follows that described by Aron et al (1971, Neuropharmacology, 10:459-469). Anxiolytics (benzodiazepines) increase the number of punished crossings. Animals were placed individually in a white plastic enclosure containing a floor consisting of 4 metal plates connected to an electric shock generator (Apelex: type 011346). Each mouse was left to explore freely for 15 seconds. Then, every time it crossed from one plate to another, it received a weak electric shock (2.5 mA, 1.5 s). The number of punished crossings was counted during a 1 minute test. 15 mice were studied per group. The test was performed blind.
# Carnosol was evaluated at 3 doses (200, 400, 600 mg/kg), administered p.o. 24 h, 5 h and 1 h before the test, and compared with a vehicle control (corn oil) group.
# Clobazam (32 mg/kg p.o.), administered 1 h before the test, was used as reference substance. Mice in this group received additional administrations of vehicle at 24 h and 5 h before the test in order to maintain experimental blinding.
# mouse [3] = assay: Porsolt's Forced Swim Test (FST); format: in vivo
# Procedure: The Forced Swim Test (FST) was first reported in 1977 for screening of antidepressant-like compounds in rats (Porsolt et al 1977 Nature, 266:730-732) and, later, modified for testing mice (Porsolt et al 1977 Arch. Int. Pharmacodynamie, 229:327-336).
# In two separate experiments, mice were tested following either i.p. or p.o. administration of carnosol. Mice were individually placed in a cylinder containing water (22° C.) from which they could not escape. The mice were placed in the water for 6 min and the duration of immobility during the last 4 min was measured. Ten to fifteen mice were studied per group. Carnosol was evaluated at 3, 10, 30 mg/kg body weight (i.p. 30 min before the test) or 200, 400, 600 mg/kg body weight (p.o., 24, 5 and 1 h before the test), and compared with vehicle control groups. Imipramine (32 mg/kg i.p., or p.o., respectively), administered under the same experimental conditions, was used as reference substance. Immobility and swimming time were assessed.
# [4] = target: T1, human glycine transporter 1b (GlyT1) (Homo sapiens, UniProt P48067); assay: Glycine uptake inhibition in CHO cells expressing GlyT1; format: cell-based; settings: 60 nM [3H]-glycine, read-out: IC50 for tritiated glycine uptake
# T1 construct: expressed in transfected cells; host or cells: CHO
# T1 sequence (P48067 1-652 isoform P48067-3): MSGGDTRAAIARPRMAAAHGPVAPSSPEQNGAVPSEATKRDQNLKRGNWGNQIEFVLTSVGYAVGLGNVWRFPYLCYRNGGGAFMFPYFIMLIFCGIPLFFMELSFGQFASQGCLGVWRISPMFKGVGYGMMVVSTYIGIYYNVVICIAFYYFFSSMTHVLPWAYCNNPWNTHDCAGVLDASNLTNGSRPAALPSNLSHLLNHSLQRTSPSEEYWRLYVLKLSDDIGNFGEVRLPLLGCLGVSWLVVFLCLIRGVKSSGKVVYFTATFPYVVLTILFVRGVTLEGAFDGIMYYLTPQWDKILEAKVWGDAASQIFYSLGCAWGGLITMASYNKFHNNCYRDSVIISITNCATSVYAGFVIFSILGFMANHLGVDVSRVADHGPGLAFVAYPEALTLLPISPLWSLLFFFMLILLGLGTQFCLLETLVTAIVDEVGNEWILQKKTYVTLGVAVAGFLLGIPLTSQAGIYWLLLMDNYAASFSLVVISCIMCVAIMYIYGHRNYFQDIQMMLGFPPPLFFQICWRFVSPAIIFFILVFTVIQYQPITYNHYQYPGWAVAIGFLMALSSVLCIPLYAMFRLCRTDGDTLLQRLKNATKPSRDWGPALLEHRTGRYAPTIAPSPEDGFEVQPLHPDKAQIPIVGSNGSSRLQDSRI
# Procedure: CHO cells stably expressing the human glycine transporter 1b cDNA (GlyT1) were routinely grown in Dulbecco's Modified Eagle's Medium (Invitrogen, Carlsbad, USA) containing 10% dialysed foetal calf serum, penicillin, streptomycin, proline and the antibiotic G418. Cells were harvested by trypsinisation one day prior to the assay and were seeded in the above mentioned medium. Immediately prior to the assay, the medium was replaced by uptake buffer containing 150 mM NaCl, 1 mM CaCl2, 2.5 mM KCl, 2.5 mM MgCl2, 10 mM Glucose and 10 mM N-2-hydroxyethylpiperazine-N′-2-ethanesulfonic acid (HEPES buffer).
# Glycine uptake into the cells was determined by addition of 60 nM radiolabelled [^3H]-glycine (Amersham Biosciences GE Healthcare, Slough, UK) and incubation for 30 minutes at room temperature. Following removal of unincorporated label by gentle washing three times with the above buffer, incorporated glycine was quantified by liquid scintillation counting.
smiles,measurement,setting,value
"CNCCC(Oc1ccc(C(F)(F)F)cc1)c1ccccc1 (stereo not drawn) [Fluoxetine, fluoxetine, reference compound]",Number of marbles buried (% change from control),mouse [1],−92%
"CN1C(=O)CC(=O)N(c2ccccc2)c2cc(Cl)ccc21 [Clobazam, reference compound]","Number of punished crossings, % change from control",mouse [2],+118%
same,"Number of punished crossings, mean",mouse [2],6.1
"CN(C)CCCN1c2ccccc2CCc2ccccc21 [imipramine, reference compound]",Duration of immobility (% change from control),"mouse [3]; 32 mg/kg i.p., −30 min",−80%
same,Duration of immobility (% change from control),"mouse [3]; 32 mg/kg p.o., −24, −5, −1 h",−48%
"CN(CC[C@@H](Oc1ccc(C(F)(F)F)cc1)c1ccccc1)CC(=O)O [ORG24598, reference compound]",IC50,[4],20 nM
